The results in this text go back to patent publication US20260109725A1, “MACROLIDE SENOLYTIC COMPOUNDS” (LUNELLA BIOTECH, INC., priority 2022, published 2026).

Assay [1] relates to Enterococcus faecalis ATCC 29212. Nature of the assay: in vitro broth microdilution assay (MIC). It is filed as cell-based. Particulars: ATCC29212; Enterococcus faecalis ATCC 29212, QC strain. The protocol: (§1) This is advantageous because use of the compounds of the present approach as therapeutic agents will have less of an impact on the development of antibiotic resistance. For example, embodiments of the present approach were screened for antibiotic activity, using the in vitro broth microdilution assay. […] The assay conditions, described by the Clinical and Laboratory Standards Institute were used for preparation of the inoculum, growth medium, and end point reading. Test substance was dissolved in 100% DMSO, suspended completely by vortexing, diluted by 2-fold serial titrations in the same vehicle, for a total of 11 test concentrations. A 4 μL aliquot of each dilution was added to 196 μL of broth medium seeded with the organism suspension in wells of a 96 well plate (bacterial count: 2-8×10(5) colony forming units/mL final). The final volume was 200 μL in each well and the final DMSO concentration was 2 percent. Test concentrations were 0.1 to 100 μM. Following incubation, the test plates were visually examined and wells were scored for growth or complete growth inhibition to define the minimum inhibitory concentration. Each test substance was evaluated with replicates. Vehicle controls and an active reference agent were used as blank and positive controls. Note that MRSA represents methicillin-resistant Staphylococcus aureus, and VRE represents vancomycin resistant Enterococcus.

The test system of assay [2] is Enterococcus faecium ATCC 700221 VanA VRE. Nature of the assay: in vitro broth microdilution assay (MIC). It is filed as cell-based. The protocol:
as §1
On the technique in general: In broth dilution the organism is exposed to a series of concentrations in liquid medium.

In assay [3] the test system is Klebsiella pneumoniae ATCC 43816. Nature of the assay: in vitro broth microdilution assay (MIC). In kind it is cell-based. Conditions: ATCC43816. The protocol: as §1
The subject of assay [4] is Escherichia coli JW5503 DEL-tolC. In words: in vitro broth microdilution assay (MIC). In kind it is cell-based. Particulars: JW5503DELTOLC. The protocol: as §1
Assay [5] has as its system Acinetobacter baumannii ATCC 17978. Nature of the assay: in vitro broth microdilution assay (MIC). It is filed as cell-based. Particulars: ATCC17978. As for the experimental part: as §1
In assay [6] the test system is Escherichia coli ATCC 25922. In words: in vitro broth microdilution assay (MIC). It is filed as cell-based. Conditions: ATCC25922; Escherichia coli ATCC 25922, QC strain. The protocol: as §1
Assay [7] relates to Staphylococcus aureus ATCC 29213. Nature of the assay: in vitro broth microdilution assay (MIC). It is filed as cell-based. Conditions: ATCC29213; Staphylococcus aureus ATCC 29213, QC strain. As for the experimental part: as §1
The test system of assay [8] is Staphylococcus aureus ATCC 33591 MRSA. In words: in vitro broth microdilution assay (MIC). It is filed as cell-based. As for the experimental part: as §1
The subject of assay [9] is Pseudomonas aeruginosa ATCC 27853. Nature of the assay: in vitro broth microdilution assay (MIC). Conditions: ATCC27853; Pseudomonas aeruginosa ATCC 27853, QC strain. In kind it is cell-based. As for the experimental part:
as §1

The subject of assay [10] is Haemophilus influenzae ATCC 49247. In words: in vitro broth microdilution assay (MIC). In kind it is cell-based. Conditions: ATCC49247; Haemophilus influenzae ATCC 49247, QC strain. As for the experimental part: as §1
Assay [11] relates to Streptococcus pneumoniae ATCC 49619. In words: in vitro broth microdilution assay (MIC). Conditions: ATCC49619; Streptococcus pneumoniae ATCC 49619, QC strain. It is filed as cell-based. The protocol:
as §1

For assay [12], the system named is control MRC-5 cells (normal lung fibroblasts). Nature of the assay: SRB assay, control (normal) MRC-5 cells. It is filed as cell-based, human. The protocol:
(§2) For example, in one assay bromodeoxyuridine (5-bromo-2′-deoxyuridine), also known as BrdU, was used to induce senescence in a cell population. BrdU is an analog of the nucleoside thymidine commonly used to identify proliferating cells. BrdU induces controlled DNA damage, and drives cells towards senescence with high efficiency. In the BrdU assay, normal fibroblasts are subjected to prolonged culture (8-days) in the presence of BrdU at 100 μM to induce controlled DNA-damage and senescence. […] Senolytic activity was assessed using the sulforhodamine B assay, also known in the art as the SRB assay. This assay measures the amount of protein remaining attached to the tissue-culture dishes, and is a surrogate marker for cell viability.
(§3) FIG. 1 compares SRB assay results for different concentrations of Azithromycin (100 µM and 50 μM) and Compound [I] (100 μM and 50 μM) of the present approach, on both control MRC-5 cells and MRC-5 cells treated with BrdU. […] (labelled as “Azi-Gal” in FIG. 1) for another 5 days. After that, the SRB assay was performed to determine the effects of the drug on cell viability, using normal MRC-5 cells as the control. […] However, at 50 μM Azithromycin had no effect on either the control cells or senescent cells.
(§4) BrdU Assay: Cells were plated into 24-well plates. Next day, half of the plate was treated with 100 μM of BrdU while control wells were treated with vehicle only (DMSO) and incubated for 8 days at 37° C. in a 5% CO2 humidified atmosphere. After 8 days of BrdU treatment cells were treated with various test compounds or drugs (e.g., azithromycin, roxithromycin, telithromycin, erythromycin, etc.) for another 3-5 days. BrdU or vehicle treatments were continued during the drug treatments as well.
(§5) Sulphorhodamine B assay: After the incubation of the plates cell viability was measured by Sulphorhodamine B assay (SRB). The assay is based on the measurement of cellular protein contents. Cells were fixed with 10% Trichloroacetic acid (TCA) for 1 hour at […], and were dried overnight at room temperature. Then, plates were incubated with SRB for 30 min, washed twice with 1% acetic acid and air dried for at least 1 h. Finally, the protein-bound dye was dissolved in a 10 mM Tris, pH 8.8, solution and read using a plate reader at 540-nm.
On the technique in general: Sulforhodamine B stains cellular protein and so reports cell mass.

The subject of assay [13] is MCF-7 cells. In words: mammosphere formation assay (3D anchorage independent growth). It is filed as cell-based, human. As for the experimental part: The compounds disclosed herein may also be used as therapeutic agent to selectively eradicate CSCs for treating and/or preventing tumor recurrence and/or metastasis. […] This assay measures the amount of residual protein that adheres to tissue culture dishes and is a surrogate marker of cell viability.
3D Anchorage Independent Growth Assay: This assay is also referred to as the mammosphere formation assay. A single-cell suspension was prepared using enzymatic, and manual disaggregation (25-g needle). Then, cells were plated at a density of 500 cells/cm^2 in mammosphere medium (DMEM-F12+1X B-27 Plus Supplement+20 ng/ml EGF+Pen/Strep) under non-adherent conditions, in culture dishes pre-coated with (2-hydroxyethylmethacrylate) (poly-HEMA, Sigma Aldrich Inc.), called “mammosphere plates.” Cells were grown for 5 days and maintained in a humidified incubator at 37° C. After 5 days of culture, 3D-mammospheres >50 μm were counted using an eye piece (“graticule”), and the percentage of cells plated which formed spheres was calculated and is referred to as percent mammosphere formation, and was normalized to one (1=100% MFE). 3D mammosphere formation efficiency (MFE) was analyzed in both the ATP-low and ATP-high sub-populations of cells. All 3D mammosphere experiments were performed in triplicate, at least 3 times independently.

Assay [14] deals with MRC-5 cells treated with BrdU (senescent fibroblasts). Nature of the assay: SRB assay, BrdU-treated (senescent) MRC-5 cells. It is filed as cell-based, human. The protocol: as §2, §3, §4, §5
Setting [15] is: SRB, control vs BrdU-treated MRC5.

Values after ≈ are worked out from the molar mass of the structure shown.

One may read the IC50 as the concentration that gives 50% inhibition. In the case of `CC[C@H]1OC(=O)[C@H](C)[C@@H](O[C@H]2C[C@@](C)(OC)[C@@H](O)[C@H](C)O2)[C@H](C)[C@@H](O[C@@H]2O[C@H](C)C[C@H](N(C)C)[C@H]2O)[C@](C)(O)C[C@@H](C)CN(C)[C@H](C)[C@@H](O)[C@]1(C)O` [Azithromycin, reference compound], the MIC in assay [1] was 6.25 µM (≈ 4.68 µg/mL); in assay [2], more than 100 µM; in assay [3], 25 µM (≈ 18.7 µg/mL); in [4], 1.56 µM (≈ 1.17 µg/mL); in [5], 6.25 µM (≈ 4.68 µg/mL); in [6] it was 6.25 µM (≈ 4.68 µg/mL). The MIC in assay [7] is 1.56 µM (≈ 1.17 µg/mL); in assay [8], more than 100 µM; in assay [9] it was 100 µM (≈ 74.9 µg/mL); in assay [10], 3.12 µM (≈ 2.34 µg/mL); in assay [11] it was 0.39 µM (≈ 0.292 µg/mL). Further, the “effect on control cells (SRB)” value in assay [12] (50 μM, 5 days) was “no effect”. For the same compound, the “effect on viability of normal MRC-5 lung fibroblasts (SRB)” value in assay [12] (100 μM, 5 days) was “no effect”. For the same compound, the “inhibition of MCF-7 cells compared to the control (mammosphere formation)” value in [13] (200 μM) is recorded as “about 30%”. Besides, the IC50 in assay [13] (Homo sapiens, MCF7) was 118 µM. The “effect on senescent cells (SRB)” value in assay [14] (50 μM, 5 days after 8 days BrdU) was “no effect”. The “effect on senescent MRC-5 fibroblasts (SRB)” value in assay [14] (100 μM, 5 days after 8 days BrdU) is “selectively killed”.
In the case of `CC[C@H]1OC(=O)[C@H](C)[C@@H](O[C@@H]2C[C@@](C)(OC)[C@@H](O)[C@H](C)O2)[C@H](C)[C@@H](O[C@@H]2O[C@H](C)C[C@H](N(C)C)[C@H]2OC(=O)CCC(=O)OCc2ccc(O[C@@H]3O[C@H](COC(C)=O)[C@H](OC(C)=O)[C@H](OC(C)=O)[C@H]3OC(C)=O)c([N+](=O)[O-])c2)[C@](C)(O)C[C@@H](C)CN(C)[C@H](C)[C@@H](O)[C@]1(C)O` [Compound [III], O4-[(2S,3R,4S,6R)-4-(dimethylamino)-2-[[(2R,3S,4R,5R,8R,10R,11R,12S,13S,14R)-2-ethyl-3,4,10-trihydroxy-13-[(2S,4R,5S,6S)-5-hydroxy-4-methoxy-4,6-dimethyl-tetrahydropyran-2-yl]oxy-3,5,6,8,10,12,14-heptamethyl-15-oxo-1-oxa-6-azacyclopentadec-11-yl]oxy]-6-methyl-tetrahydropyran-3-yl] O1-[[3-nitro-4-[(2S,3R,4S,5S,6R)-3,4,5-triacetoxy-6-(acetoxymethyl)tetrahydropyran-2-yl]oxy-phenyl]methyl]butanedioate], in [14] (setting [15]), the “potency relative to the parent compound, Azithromycin (SRB)” value is given as “about half”; the “senolytic activity compared to Azithromycin and Compound [I]” value is “significantly less senolytic activity”.
On to `CC[C@H]1OC(=O)[C@H](C)[C@@H](O[C@@H]2C[C@@](C)(OC)[C@@H](O)[C@H](C)O2)[C@H](C)[C@@H](O[C@@H]2O[C@H](C)C[C@H](N(C)C(=O)OCc3ccc(O[C@@H]4O[C@H](COC(C)=O)[C@H](OC(C)=O)[C@H](OC(C)=O)[C@H]4OC(C)=O)c([N+](=O)[O-])c3)[C@H]2O)[C@](C)(O)C[C@@H](C)CN(C)[C@H](C)[C@@H](O)[C@]1(C)O` [Compound [IV], [(2R,3S,4S,5R,6S)-3,4,5-triacetoxy-6-[4-[[[(2S,3R,4S,6R)-2-[[(2R,3S,4R,5R,8R,10R,11R,12S,13S,14R)-2-ethyl-3,4,10-trihydroxy-13-[(2S,4R,5S,6S)-5-hydroxy-4-methoxy-4,6-dimethyl-tetrahydropyran-2-yl]oxy-3,5,6,8,10,12,14-heptamethyl-15-oxo-1-oxa-6-azacyclopentadec-11-yl]oxy]-3-hydroxy-6-methyl-tetrahydropyran-4-yl]-methyl-carbamoyl]oxymethyl]-2-nitro-phenoxy]tetrahydropyran-2-yl]methyl acetate], for which, in [14] (control vs BrdU-treated MRC5), the “selectivity for senescent cells over normal, non-senescent cells (SRB)” value is given as “no little selectivity”.
For `CC[C@H]1OC(=O)[C@H](C)[C@@H](O[C@@H]2C[C@@](C)(OC)[C@@H](O)[C@H](C)O2)[C@H](C)[C@@H](O[C@@H]2O[C@H](C)C[C@H](N(C)C)[C@H]2OC(=O)OCc2ccc(O[C@@H]3O[C@H](COC(C)=O)[C@H](OC(C)=O)[C@H](OC(C)=O)[C@H]3OC(C)=O)c([N+](=O)[O-])c2)[C@](C)(O)C[C@@H](C)C(=O)[C@H](C)[C@@H](O)[C@]1(C)O` [Compound [VI], 2R,3S,4S,5R,6S)-3,4,5-triacetoxy-6-[4-[[(2S,3R,4S,6R)-4-(dimethylamino)-2-[[(3R,4S,5S,6R,7R,9R,11R,12R,13S,14R)-14-ethyl-7,12,13-trihydroxy-4-[(2S,4R,5S,6S)-5-hydroxy-4-methoxy-4,6-dimethyl-tetrahydropyran-2-yl]oxy-3,5,7,9,11,13-hexamethyl-2,10-dioxo-oxacyclotetradec-6-yl]oxy]-6-methyl-tetrahydropyran-3-yl]oxycarbonyloxymethyl]-2-nitro-phenoxy]tetrahydropyran-2-yl]methyl acetate], in assay [12] (compared to Roxithromycin and Erythromycin), the “preference for normal, non-senescent control cells (SRB)” value is recorded as “preference for the normal, non-senescent control cells”. Also, the “effect on the senescent cells (SRB)” value in assay [14] (BrdU-treated MRC5) is “little effect”.
